Results taken from PubChem BioAssay AID248 (DTP/NCI, 2004).
Values joined by “and” are separate entries in the source; they are usually repeats but may differ in a detail not shown here. Equal entries are not always repeated. Inconclusive results and toxic doses are left out. No stated cut-off is given here; in the data, active means T/C of 150% or more; inactive means T/C below 125%.

Tested on: L1210 leukemia ip in BDF1 mice, survival T/C
Experiment: NCI In Vivo Anticancer Drug Screen. Data for tumor model L1210 Leukemia (intraperitoneal) in B6D2F1 (BDF1) mice
Details: endpoint: mean survival time, higher = longer survival
Method in brief: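 Tumor cells were implanted, animals were treated, and survival was followed. The result divides the treated measurement by the vehicle-control measurement.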

[1] = dose: 25.0 mg/kg/injection, schedule: Q04DX003 (ip), vehicle: saline
[2] = dose: 50.0 mg/kg/injection, schedule: Q04DX003 (ip), vehicle: saline
[3] = dose: 200.0 mg/kg/injection, schedule: Q04DX003 (ip), vehicle: saline
[4] = dose: 400.0 mg/kg/injection, schedule: Q04DX003 (ip), vehicle: saline
[5] = dose: 100.0 mg/kg/injection, schedule: Q04DX002 (ip), vehicle: Klucel (hydroxypropylcellulose) (HPC)
[6] = dose: 200.0 mg/kg/injection, schedule: Q04DX002 (ip), vehicle: Klucel (hydroxypropylcellulose) (HPC)
[7] = dose: 400.0 mg/kg/injection, schedule: Q04DX002 (ip), vehicle: Klucel (hydroxypropylcellulose) (HPC)

Measured: T/C

O=C1NC(=O)C([N+](=O)[O-])C(=O)N1
inactive: dose: 12.5 mg/kg/injection, schedule: Q04DX003 (ip), vehicle: saline 104 % of control | [1] 95 % of control | [2] 93 % of control | [3] 98 % of control | [4] 91 % of control

CC(=O)SCCCCl
inactive: dose: 100.0 mg/kg/injection, schedule: Q04DX003 (ip), vehicle: saline 105 % of control | [3] 101 % of control | [4] 102 % of control

O=NN(CCCl)C(=O)Nc1ccccc1C(=O)O
inactive: dose: 6.0 mg/kg/injection, schedule: Q01DX001 (ip), vehicle: carboxymethylcellulose (CMC) 121 % of control
active: dose: 9.0 mg/kg/injection, schedule: Q01DX001 (ip), vehicle: carboxymethylcellulose (CMC) 156 % of control

CC1(C)OC(=O)C(=Cc2cccc3ccc4ccccc4c23)C(=O)O1
inactive: dose: 100.0 mg/kg/injection, schedule: Q01DX001 (ip), vehicle: gum acacia 100 % of control | dose: 200.0 mg/kg/injection, schedule: Q01DX001 (ip), vehicle: gum acacia 97 % of control | dose: 400.0 mg/kg/injection, schedule: Q01DX001 (ip), vehicle: gum acacia 101 % of control

CC(=O)Cc1cc(C)nc(/N=C(\N)N2CCCCC2)n1
inactive: [5] 92 % of control | [6] 103 % of control | [7] 96 % of control

O=C(Nc1ccccc1C1=NCCN1)c1ccc(C(=O)Nc2ccccc2C2=NCCN2)cc1
inactive: dose: 15.0 mg/kg/injection, schedule: Q01DX Z (ip), vehicle: methylcellulose (MC) 88 % of control | dose: 30.0 mg/kg/injection, schedule: Q01DX Z (ip), vehicle: methylcellulose (MC) 95 % of control | dose: 62.0 mg/kg/injection, schedule: Q01DX Z (ip), vehicle: carboxymethylcellulose (CMC) 92 % of control | dose: 125.0 mg/kg/injection, schedule: Q01DX Z (ip), vehicle: carboxymethylcellulose (CMC) 94 % of control | dose: 250.0 mg/kg/injection, schedule: Q01DX Z (ip), vehicle: carboxymethylcellulose (CMC) 88 % of control

ClCc1ccc(CCl)c(Cl)c1Cl
inactive: dose: 25.0 mg/kg/injection, schedule: Q01DX009 (ip), vehicle: saline with Tween-80 105 % of control | dose: 50.0 mg/kg/injection, schedule: Q01DX009 (ip), vehicle: saline with Tween-80 97 % of control | dose: 100.0 mg/kg/injection, schedule: Q01DX009 (ip), vehicle: saline with Tween-80 93 % of control

C=C[P+](c1ccccc1)(c1ccccc1)c1ccccc1
inactive: dose: 0.78 mg/kg/injection, schedule: Q01DX009 (ip), vehicle: saline 124 % of control | dose: 1.56 mg/kg/injection, schedule: Q01DX009 (ip), vehicle: saline 104 % of control | dose: 1.56 mg/kg/injection, schedule: Q04DX003 (ip), vehicle: saline 108 % of control | dose: 3.12 mg/kg/injection, schedule: Q01DX009 (ip), vehicle: saline 93 % of control | dose: 3.12 mg/kg/injection, schedule: Q04DX003 (ip), vehicle: saline 112 % of control | dose: 5.0 mg/kg/injection, schedule: Q01DX001 (ip), vehicle: saline 115 % of control | dose: 8.88 mg/kg/injection, schedule: Q01DX001 (ip), vehicle: saline 102 % of control and 104 % of control | dose: 10.0 mg/kg/injection, schedule: Q01DX001 (ip), vehicle: saline 115 % of control | dose: 10.0 mg/kg/injection, schedule: Q04DX003 (ip), vehicle: saline 98 % of control | dose: 13.34 mg/kg/injection, schedule: Q01DX001 (ip), vehicle: saline 102 % of control and 104 % of control | dose: 20.0 mg/kg/injection, schedule: Q01DX001 (ip), vehicle: saline 102 % of control and 104 % of control | dose: 20.0 mg/kg/injection, schedule: Q04DX003 (ip), vehicle: saline 92 % of control | dose: 30.0 mg/kg/injection, schedule: Q01DX001 (ip), vehicle: saline 101 % of control and 105 % of control | dose: 40.0 mg/kg/injection, schedule: Q01DX001 (ip), vehicle: saline 97 % of control

CCCCCCCC/C=C\CCCCCCCCOC(=O)Cc1ccc(N(CCCl)CCCl)cc1
inactive: dose: 100.0 mg/kg/injection, schedule: Q01DX005 (ip), vehicle: Klucel (hydroxypropylcellulose) (HPC) 119 % of control | [5] 121 % of control | dose: 200.0 mg/kg/injection, schedule: Q01DX005 (ip), vehicle: Klucel (hydroxypropylcellulose) (HPC) 115 % of control | [6] 117 % of control | [7] 121 % of control

CC(C)=NN=C(C)C
inactive: dose: 12.5 mg/kg/injection, schedule: Q01DX001 (ip), vehicle: saline 101 % of control | dose: 12.5 mg/kg/injection, schedule: Q01DX009 (ip), vehicle: saline 101 % of control | dose: 25.0 mg/kg/injection, schedule: Q01DX001 (ip), vehicle: saline 99 % of control | dose: 25.0 mg/kg/injection, schedule: Q01DX009 (ip), vehicle: saline 100 % of control | [1] 100 % of control | dose: 50.0 mg/kg/injection, schedule: Q01DX001 (ip), vehicle: saline 111 % of control | [2] 102 % of control | dose: 100.0 mg/kg/injection, schedule: Q01DX001 (ip), vehicle: saline 110 % of control
